# Reference: PubChem BioAssay (NCI)
#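 Test compounds were applied to cells in 96-well plates for 48 hours at 5 doses. At the GI50, growth is halved. The concentration for full growth arrest is given as TGI.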
# Tests used:
# Assay in all cases: NCI-60 cell line screen, 48 h
# [1] = test system: OVCAR-3 ovarian
# [2] = test system: OVCAR-4 ovarian
# [3] = test system: UACC-62 melanoma
# [4] = test system: SNB-75 CNS
# [5] = test system: NCI-H460 lung
# [6] = test system: SK-MEL-28 melanoma
# [7] = test system: HOP-92 NSCLC
# [8] = test system: K-562 leukemia
# [9] = test system: SK-MEL-5 melanoma
# [10] = test system: SR leukemia
Compound,TGI [1],TGI [2],TGI [3],TGI [4],TGI [5],TGI [6],TGI [7],TGI [8],TGI [9],TGI [10],GI50 [9],GI50 [1],GI50 [2],GI50 [3],GI50 [4],GI50 [5],GI50 [6],GI50 [7],GI50 [8],GI50 [10]
N#CC(C(=N/NC(N)=S)/C(=N\NC(N)=S)C(C#N)c1ccccc1)c1ccccc1 (centres undefined),> 10 µM,> 10 µM,> 10 µM,> 10 µM,> 10 µM,> 10 µM,> 10 µM,> 10 µM,–,–,–,–,–,–,–,–,–,–,–,–
CC[O+]=c1cccc2ssnc1-2,99.8 µM,> 100 µM,> 100 µM,72.5 µM,> 100 µM,> 100 µM,–,> 100 µM,> 100 µM,–,–,–,–,–,–,–,–,–,–,–
Nc1nc(N)c2ncn(Cc3c(Cl)cccc3Cl)c2n1,> 100 µM,> 100 µM,> 100 µM,48.7 µM,–,> 100 µM,> 100 µM,–,> 100 µM,–,–,–,–,–,–,–,–,–,–,–
CC1=C(CC/C(C)=C/CCC2(C)CCC([C@H](C)C(=O)O)OO2)C(C)(C)CCC1 (some centres undefined) (tested in a mixture with another compound),> 100 µM,> 100 µM,–,> 100 µM,> 100 µM,> 100 µM,> 100 µM,–,–,–,–,–,–,–,–,–,–,–,–,–
COc1ccc2c(CCNS(=O)(=O)c3ccccc3)c(C(C)=O)[nH]c2c1[N+](=O)[O-],> 100 µM,> 100 µM,> 100 µM,–,> 100 µM,–,–,> 100 µM,–,> 100 µM,–,–,–,–,–,–,–,–,–,–
c1ccc(CN2CCC3(CC2)ONC2=NCCN23)cc1,87.3 µM,> 100 µM,> 100 µM,> 100 µM,> 100 µM,> 100 µM,59.1 µM,> 100 µM,> 100 µM,–,72 µM,19.5 µM,> 100 µM,70.8 µM,> 100 µM,86.5 µM,> 100 µM,29.3 µM,42.8 µM,–
C=CCCC12CCCC(=O)C1Sc1ccc3ccccc3c12 (centres undefined),29 µM,> 100 µM,40 µM,82.9 µM,–,> 100 µM,–,> 100 µM,–,–,–,–,–,–,–,–,–,–,–,–
S=C(S)NCCCn1ccnc1,> 100 µM,> 100 µM,> 100 µM,–,> 100 µM,> 100 µM,> 100 µM,> 100 µM,> 100 µM,> 100 µM,–,–,–,–,–,–,–,–,–,–
CC(C)(C)OC(=O)N(CCCn1c2c(c3ccccc3c1=O)C(=O)c1ccccc1-2)CCN(CCCn1c2c(c3ccccc3c1=O)C(=O)c1ccccc1-2)C(=O)OC(C)(C)C,> 50 µM,> 50 µM,> 50 µM,–,> 50 µM,> 50 µM,> 50 µM,> 50 µM,> 50 µM,13.7 µM,> 50 µM,13.2 µM,> 50 µM,45.3 µM,–,27.3 µM,37 µM,11.1 µM,21.3 µM,2.26 µM
COc1ccc2c3c([nH]c2c1[N+](=O)[O-])C(C)N(C(=O)/C=C/c1ccccc1)CC3 (centres undefined),> 100 µM,> 100 µM,9.06 µM,–,> 100 µM,> 100 µM,–,> 100 µM,–,> 100 µM,–,–,–,–,–,–,–,–,–,–
O=C(CN1C(=O)c2ccccc2C1=O)OC1C=CCCC1 (centres undefined),–,> 100 µM,> 100 µM,> 100 µM,> 100 µM,> 100 µM,–,> 100 µM,> 100 µM,> 100 µM,–,–,–,–,–,–,–,–,–,–
COC(=O)/C1=C/C2CC(/C=C(/c3ccccc3)C(=O)O1)C2,> 100 µM,–,67.4 µM,35.4 µM,> 100 µM,66.4 µM,–,96.1 µM,47 µM,–,–,–,–,–,–,–,–,–,–,–
NC(CCc1nc(-c2ccccc2)cs1)C(=O)O (centres undefined),> 100 µM,–,> 100 µM,> 100 µM,> 100 µM,> 100 µM,> 100 µM,> 100 µM,> 100 µM,–,–,–,–,–,–,–,–,–,–,–
CC(C)c1cccc2sc(NC(=O)C(=O)CC(=O)c3ccc(F)cc3)nc12,> 100 µM,> 100 µM,> 100 µM,> 100 µM,> 100 µM,> 100 µM,> 100 µM,> 100 µM,> 100 µM,–,–,–,–,–,–,–,–,–,–,–
CC(=O)c1ccc(NCn2nc(-c3ccccc3O)oc2=S)cc1,> 100 µM,–,> 100 µM,–,> 100 µM,> 100 µM,> 100 µM,> 100 µM,> 100 µM,–,55.6 µM,> 100 µM,–,35.8 µM,–,39.5 µM,> 100 µM,42.8 µM,> 100 µM,–
O=C(Oc1ccccc1Cl)c1cccnc1Nc1ccnc(C(F)(F)F)c1,32.6 µM,95.8 µM,18.7 µM,–,> 100 µM,46.8 µM,> 100 µM,27.6 µM,27 µM,–,14 µM,16.5 µM,27.8 µM,6.13 µM,–,38.4 µM,20.4 µM,35.2 µM,4.61 µM,–
CC(=O)[CH-]C(=O)c1ccccc1.CC(=O)[CH-]C(=O)c1ccccc1.CC(C)CCCC(C)[C@H]1CCC2[C@@H]3CCC4C[C@@H]([O-])CC[C@]4(C)C3CC[C@@]21C.CC(C)CCCC(C)[C@H]1CCC2[C@@H]3CCC4C[C@@H]([O-])CC[C@]4(C)C3CC[C@@]21C.Cl.[Ti+4] (some centres undefined),> 25 µM,> 25 µM,> 25 µM,> 25 µM,> 25 µM,> 25 µM,–,> 25 µM,> 25 µM,–,> 25 µM,> 25 µM,> 25 µM,> 25 µM,> 25 µM,> 25 µM,> 25 µM,–,> 25 µM,–
CCC1N2CCCCC2[C@@H]2c3[nH]c4ccccc4c3CCN12 (some centres undefined),> 100 µM,> 100 µM,> 100 µM,> 100 µM,> 100 µM,> 100 µM,> 100 µM,> 100 µM,> 100 µM,–,–,–,–,–,–,–,–,–,–,–
COc1ccc(OC)c(-c2cn3nc(-c4c[nH]c5ccc(Br)cc45)sc3n2)c1,4.32 µM,3.8 µM,13.2 µM,24.3 µM,4.17 µM,11.7 µM,5.68 µM,–,15.2 µM,–,3.86 µM,1.96 µM,1.8 µM,3.15 µM,3.72 µM,2.04 µM,3.29 µM,2.01 µM,–,–
O=S(O)CCCCSSCCCCS(=O)(O)=S,> 100 µM,79 µM,70.1 µM,92.1 µM,> 100 µM,> 100 µM,–,> 100 µM,30.8 µM,–,–,–,–,–,–,–,–,–,–,–
Cc1ccc(S(=O)(=O)NC(C)C(=O)O)cc1 (centres undefined),> 100 µM,> 100 µM,> 100 µM,> 100 µM,> 100 µM,> 100 µM,> 100 µM,> 100 µM,> 100 µM,–,–,–,–,–,–,–,–,–,> 100 µM,–
